Earlier results in patent US10960001B2, “Opioid agonist / antagonist combination dosage forms” (KASHIV PHARMA LLC, priority 2017, dated 2021).

What was measured:
[1] = 25° C.

Row | Compound | solubility in water [1] | oral bioavailability (after intake of therapeutic doses) | bioavailability with oral ingestion (oral ingestion)
1 | C=CCN1CC[C@]23c4c5ccc(O)c4O[C@H]2C(=O)CC[C@@]3(O)[C@H]1C5 [Naloxone free base, naloxone] | about 1.4 mg/mL |  | 
2 | C=CCN1CC[C@]23c4c5ccc(O)c4O[C@H]2C(=O)CC[C@@]3(O)[C@H]1C5 [Naloxone, naloxone] |  | 2-3% | about 2%
